Measured values: US20230414599A1, “NICOTINAMIDE, NICOTINAMIDE PRECURSORS AND NICOTINAMIDE METABOLITES AND COMPOSITIONS THEREOF FOR REDUCING THE TIME TO RESOLUTION OF SYMPTOMS IN PATIENTS WITH COVID-19 AND OTHER VIRAL INFECTIONS” (CONARIS RESEARCH INSTITUTE AG, priority 2020, published 2023)
Like-named read-outs stand apart in the source and are kept apart here.

Tested on: COVID-19
Details: 500 mg IR + 500 mg CICR-NAM daily; for Ability to perform normal activities, complaint scale 0-6, mean change / Ability to perform normal activities, complaint scale 0-6, median change: week 6 - baseline
[1] = week 4, current or former smokers, n = 75
[2] = week 4, patients with cough and fever, n = 15
[3] = week 4, patients with cough, n = 106
[4] = week 4, patients with fever, n = 21
[5] = week 4, ≥1 risk factor for severe COVID-19, n = 117
[6] = BMI ≥30.0 or type 2 diabetes, n = 27
[7] = current or former smokers, n = 75
[8] = patients with cough and fever, n = 15
[9] = ≥1 risk factor for severe COVID-19, n = 117
[10] = week 6, BMI ≥30.0 or type 2 diabetes, n = 27
[11] = week 6, current or former smokers, n = 75
[12] = week 6, patients with cough and fever, n = 15
[13] = week 6, patients with cough, n = 106
[14] = week 6, patients with fever, n = 21
[15] = week 6, ≥1 risk factor for severe COVID-19, n = 117

With `NC(=O)c1cccnc1` [Nicotinamide, nicotinamide] the “Ability to perform normal activities worse vs baseline, % of patients” value [1] was 6.67%, the “Ability to perform normal activities worse vs baseline, patients” value [1] was 5 and the “Ability to perform normal activities, complaint scale 0-6, mean” value [1] was 0.920. For the same compound, the “Ability to perform normal activities, complaint scale 0-6, median” value [1] was 0.000, the “Reduced physical performance constant vs baseline, % of patients” value [1] was 38.67% and the “Reduced physical performance constant vs baseline, patients” value [1] was 29. For the same compound, the “Reduced physical performance improved vs baseline, % of patients” value [1] was 56.00%, the “Reduced physical performance improved vs baseline, patients” value [1] was 42 and the “Reduced physical performance worse vs baseline, % of patients” value [1] was 5.33%. The “Reduced physical performance worse vs baseline, patients” value [1] was 4, the “Ability to perform normal activities, complaint scale 0-6, mean” value [2] was 1.200 and the “Ability to perform normal activities, complaint scale 0-6, median” value [2] was 0.0. The “Ability to perform normal activities, complaint scale 0-6, mean” value [3] was 0.736, the “Ability to perform normal activities, complaint scale 0-6, median” value [3] was 0.0 and the “Ability to perform normal activities, complaint scale 0-6, mean” value [4] was 1.048. For the same compound, the “Ability to perform normal activities, complaint scale 0-6, median” value [4] was 0.0, the “Ability to perform normal activities constant vs baseline, % of patients” value [5] was 8.55% and the “Ability to perform normal activities constant vs baseline, patients” value [5] was 10. For the same compound, the “Ability to perform normal activities improved vs baseline, % of patients” value [5] was 84.62%, the “Ability to perform normal activities improved vs baseline, patients” value [5] was 99 and the “Ability to perform normal activities worse vs baseline, % of patients” value [5] was 6.84%. For the same compound, the “Ability to perform normal activities worse vs baseline, patients” value [5] was 8, the “Ability to perform normal activities, complaint scale 0-6, mean” value [5] was 0.880 and the “Ability to perform normal activities, complaint scale 0-6, median” value [5] was 0.0. The “Reduced physical performance constant vs baseline, % of patients” value [5] was 47.86%, the “Reduced physical performance constant vs baseline, patients” value [5] was 56 and the “Reduced physical performance improved vs baseline, % of patients” value [5] was 47.01%. The “Reduced physical performance improved vs baseline, patients” value [5] was 55, the “Reduced physical performance worse vs baseline, % of patients” value [5] was 5.13% and the “Reduced physical performance worse vs baseline, patients” value [5] was 6. The “Ability to perform normal activities, complaint scale 0-6, mean change” value (shortened to “Ability … mean change”) [6] was −1.741, the “Ability to perform normal activities, complaint scale 0-6, median change” value (shortened to “Ability … median change”) [6] was −2.000 and the “Ability … mean change” value [7] was −2.587. For the same compound, the “Ability … median change” value [7] was −3.000, the “Ability … mean change” value [8] was −2.933 and the “Ability … median change” value [8] was −3.0. The “Ability … mean change” value (patients with cough, n = 106) was −2.255, the “Ability … median change” value (patients with cough, n = 106) was −2.0 and the “Ability … mean change” value (patients with fever, n = 21) was −3.238. For the same compound, the “Ability … median change” value (patients with fever, n = 21) was −4.0, the “Ability … mean change” value [9] was −2.419 and the “Ability … median change” value [9] was −3.0. For the same compound, the “Ability to perform normal activities constant vs baseline, % of patients” value [10] was 11.11%, the “Ability to perform normal activities constant vs baseline, patients” value [10] was 3 and the “Ability to perform normal activities improved vs baseline, % of patients” value [10] was 74.07%. The “Ability to perform normal activities improved vs baseline, patients” value [10] was 20, the “Ability to perform normal activities worse vs baseline, % of patients” value [10] was 14.81% and the “Ability to perform normal activities worse vs baseline, patients” value [10] was 4. The “Ability to perform normal activities, complaint scale 0-6, mean” value [10] was 1.296, the “Ability to perform normal activities, complaint scale 0-6, median” value [10] was 1.000 and the “Cough complaint scale 0-6, mean” value [10] was 0.370. For the same compound, the “Cough complaint scale 0-6, median” value [10] was 0.000, the “Ability to perform normal activities constant vs baseline, % of patients” value [11] was 12.00% and the “Ability to perform normal activities constant vs baseline, patients” value [11] was 9. For the same compound, the “Ability to perform normal activities improved vs baseline, % of patients” value [11] was 82.67%, the “Ability to perform normal activities improved vs baseline, patients” value [11] was 62 and the “Ability to perform normal activities worse vs baseline, % of patients” value [11] was 5.33%. For the same compound, the “Ability to perform normal activities worse vs baseline, patients” value [11] was 4, the “Ability to perform normal activities, complaint scale 0-6, mean” value [11] was 0.787 and the “Ability to perform normal activities, complaint scale 0-6, median” value [11] was 0.000. The “Presence of cough constant vs baseline, % of patients” value [11] was 54.67%, the “Presence of cough constant vs baseline, patients” value [11] was 41 and the “Presence of cough improved vs baseline, % of patients” value [11] was 42.67%. For the same compound, the “Presence of cough improved vs baseline, patients” value [11] was 32, the “Presence of cough worse vs baseline, % of patients” value [11] was 2.67% and the “Presence of cough worse vs baseline, patients” value [11] was 2. The “Reduced physical performance constant vs baseline, % of patients” value [11] was 38.67%, the “Reduced physical performance constant vs baseline, patients” value [11] was 29 and the “Reduced physical performance improved vs baseline, % of patients” value [11] was 56.00%. The “Reduced physical performance improved vs baseline, patients” value [11] was 42, the “Reduced physical performance worse vs baseline, % of patients” value [11] was 5.33% and the “Reduced physical performance worse vs baseline, patients” value [11] was 4. For the same compound, the “Ability to perform normal activities, complaint scale 0-6, mean” value [12] was 1.067, the “Ability to perform normal activities, complaint scale 0-6, median” value [12] was 0.0 and the “Ability to perform normal activities, complaint scale 0-6, mean” value [13] was 0.660. The “Ability to perform normal activities, complaint scale 0-6, median” value [13] was 0.0, the “Ability to perform normal activities, complaint scale 0-6, mean” value [14] was 0.762 and the “Ability to perform normal activities, complaint scale 0-6, median” value [14] was 0.0. For the same compound, the “Ability to perform normal activities constant vs baseline, % of patients” value [15] was 11.97%, the “Ability to perform normal activities constant vs baseline, patients” value [15] was 14 and the “Ability to perform normal activities improved vs baseline, % of patients” value [15] was 82.05%. The “Ability to perform normal activities improved vs baseline, patients” value [15] was 96, the “Ability to perform normal activities worse vs baseline, % of patients” value [15] was 5.98% and the “Ability to perform normal activities worse vs baseline, patients” value [15] was 7. The “Ability to perform normal activities, complaint scale 0-6, mean” value [15] was 0.769, the “Ability to perform normal activities, complaint scale 0-6, median” value [15] was 0.0 and the “Fatigue constant vs baseline, % of patients” value [15] was 38.46%. For the same compound, the “Fatigue constant vs baseline, patients” value [15] was 45, the “Fatigue improved vs baseline, % of patients” value [15] was 59.83% and the “Fatigue improved vs baseline, patients” value [15] was 70. For the same compound, the “Fatigue worse vs baseline, % of patients” value [15] was 1.71%, the “Fatigue worse vs baseline, patients” value [15] was 2 and the “Reduced physical performance constant vs baseline, % of patients” value [15] was 40.17%. The “Reduced physical performance constant vs baseline, patients” value [15] was 47, the “Reduced physical performance improved vs baseline, % of patients” value [15] was 54.70% and the “Reduced physical performance improved vs baseline, patients” value [15] was 64. For the same compound, the “Reduced physical performance worse vs baseline, % of patients” value [15] was 5.13% and the “Reduced physical performance worse vs baseline, patients” value [15] was 6.
